These results are taken from paper PMC9977718, “A photoswitchable inhibitor of TREK channels controls pain in wild-type intact freely moving animals” (Nature Communications, 2023).

The assay has as its target T1, TRESK (Mus musculus, UniProt Q6VV64).
T1 construct: gene Kcnk18
T1 sequence (Q6VV64 1-394): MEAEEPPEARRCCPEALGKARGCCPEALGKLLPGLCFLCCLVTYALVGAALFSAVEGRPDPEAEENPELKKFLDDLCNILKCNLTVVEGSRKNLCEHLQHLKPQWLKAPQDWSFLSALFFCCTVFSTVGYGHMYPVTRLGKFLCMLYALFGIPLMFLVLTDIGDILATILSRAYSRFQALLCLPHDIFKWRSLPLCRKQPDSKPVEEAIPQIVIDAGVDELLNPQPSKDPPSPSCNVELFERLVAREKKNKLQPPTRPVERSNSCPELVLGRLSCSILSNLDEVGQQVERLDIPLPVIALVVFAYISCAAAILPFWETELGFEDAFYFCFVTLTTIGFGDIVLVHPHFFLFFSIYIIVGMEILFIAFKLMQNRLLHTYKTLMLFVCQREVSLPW
The experiment in a line: whole-cell patch clamp, photoblock of mouse versus human channel. The assay is classed as cell-based. In general terms: In patch-clamp work, channel activity is measured electrically.

With `COc1ccccc1C(=O)Nc1cccc(N=Nc2cccc(C)c2)c1` [LAKI], the “whole-cell patch clamp, photoblock of mouse versus human channel” value was “LAKI photoblock is conserved among species since TRESK and TRAAK channel inhibitions are similar in mouse and human”.
